Counter-ions that a name gives are not always drawn.
Columns and labels:
[1] = tested on: MCF-7 (estrogen receptor positive) human breast cancer cell line; test: Cell cycle phase distribution by flow cytometric DNA analysis in MCF-7 cells; format: cell-based; conditions: for % G1 / % G2/M / % S: 24 hours; for shift of cells from the resting G1 phase to the proliferative S phase (estrogenic activity): compound alone, 0.1 μM; for prevention of E2 induced proliferation (shift from G1 to S phase): in combination with E2
Experimental: (§1) In the in vitro standard pharmacological test procedure, 17α-dihydroequilin was evaluated as a representative compound in MCF-7 (estrogen receptor positive) and […] (estrogen receptor negative) human breast cancer cell lines to determine the effect of the compounds of this invention on cell proliferation as measured by the percent of the cells present in the G1, S, and G2/M phases of the cell cycle. Briefly, the cell lines were plated in T-25 tissue culture flasks at an initial density of between 50,000 and 100,000 cells/flask and incubated for a period of 24 hours in phenol-red free IMEM medium supplemented with dextran-coated-charcoal stripped fetal bovine serum (10%), glutamine (5 mg/mL) and gentamycin sulfate (2 mg/mL).

[2] = tested on: MDA-231 (estrogen receptor negative) human breast cancer cell line; test: Cell cycle phase distribution by flow cytometric DNA analysis in MDA-231 cells; format: cell-based; conditions: for % G1 / % G2/M / % S: 24 hours
Experimental: as §1

[3] = tested on: DMBA induced mammary carcinoma; test: DMBA induced mammary carcinoma in rats, tumor size; format: in vivo, Sprague-Dawley female rats; conditions: rat
Experimental: Rats were treated either with vehicle (control), 17α-dihydroequilin sulfate, or tamoxifen. In addition, one group of rats were ovariectomized after tumor development and then treated with vehicle. The animals were treated for a 4 week period. Tumor volumes were measured weekly.

[4] = rat; 200 μg/day for 3 weeks; cited from earlier work
[5] = tested on: estrogen receptor positive MCF-7 human breast cancer cells; conditions: prevents cells from entering the S phase; cited from earlier work
[6] = test compound (0.1 nM) in combination with E2 (1 nM)

In the case of C[C@]12CC[C@@H]3c4ccc(O)cc4CC[C@H]3[C@@H]1CC[C@@H]2O [E2, 17β-estradiol], the “shift of cells from the G1 phase to the S phase (cell proliferation)” value ([1]; E2 alone) is reported as “caused cell proliferation”, the “% G1” value ([1]; E2 alone) is reported as 29% and the “% G2/M” value ([1]; E2 alone) is reported as 5%. For the same compound, the “% S” value ([1]; E2 alone) was 66%, the “shift of cells from the G1 phase to the S phase (cell proliferation)” value ([2]; E2 alone) was “this shift was not observed” and the “% G1” value ([2]; E2 alone) was 38%. For the same compound, the “% G2/M” value ([2]; E2 alone) was 17% and the “% S” value ([2]; E2 alone) was 45%.

In the case of C[C@]12CC[C@H]3C(=CCc4cc(OS(=O)(=O)O)ccc43)[C@@H]1CC[C@H]2O [17α-DHEQ-S, 17α-Dihydroequilin sulfate], the “percent change of tumor size from week 0, Week 1” value (from here on “percent change … Week 1”) ([3]; daily dose 0.5 mg/kg) is reported as 47.2%, the “percent change of tumor size from week 0, Week 2” value (from here on “percent change … Week 2”) ([3]; daily dose 0.5 mg/kg) is reported as 75.9% and the “percent change of tumor size from week 0, Week 3” value (from here on “percent change … Week 3”) ([3]; daily dose 0.5 mg/kg) is reported as 59.4%. For the same compound, the “percent change of tumor size from week 0, Week 4” value (“percent change … Week 4” below) ([3]; daily dose 0.5 mg/kg) was 111.6%, the “percent change … Week 1” value ([3]; daily dose 5.0 mg/kg) was −18.2% and the “percent change … Week 2” value ([3]; daily dose 5.0 mg/kg) was −21.2%. For the same compound, the “percent change … Week 3” value ([3]; daily dose 5.0 mg/kg) was −8.2%, the “percent change … Week 4” value ([3]; daily dose 5.0 mg/kg) was 3.1% and the “percent change … Week 1” value ([3]; daily dose 25.0 mg/kg) was −49.7%. For the same compound, the “percent change … Week 3” value ([3]; daily dose 25.0 mg/kg) was −51.2% and the “percent change … Week 4” value ([3]; daily dose 25.0 mg/kg) was −46.7%.

With C[C@]12CC[C@H]3C(=CCc4cc(O)ccc43)[C@@H]1CC[C@H]2O [17α-dihydroequilin] the “shift of cells from the resting G1 phase to the proliferative S phase (estrogenic activity)” value [1] was “did not cause a shift of cells from the resting G1 phase to the proliferative S phase”, the “prevention of E2 induced proliferation (shift from G1 to S phase)” value [1] was “prevented the E2 induced proliferation” and the “% G1” value [1, 6] was 42%. The “% G2/M” value [1, 6] was 15%, the “% S” value [1, 6] was 42% and the “% G1” value [2, 6] was 26%. For the same compound, the “% G2/M” value [2, 6] was 13% and the “% S” value [2, 6] was 60%.

With CC/C(=C(\c1ccccc1)c1ccc(OCCN(C)C)cc1)c1ccccc1 [Tamoxifen, Z-1-(4β-dimethylaminoethoxyphenyl) 1,2-diphenyl but-1-ene citratel] the “reduction in tumor size (in words)” value ([3]; 4 week treatment) was “caused a reduction in tumor size”, the “percent change … Week 2” value ([3]; daily dose 2.0 mg/kg) was −18.7% and the “percent change … Week 3” value ([3]; daily dose 2.0 mg/kg) was −28.5%. The “percent change … Week 4” value ([3]; daily dose 2.0 mg/kg) was −20.1%, the “shift of cells from the resting G1 phase to the proliferative S phase (estrogenic activity)” value [1] was “A similar result was observed” and the “prevention of E2 induced proliferation (shift from G1 to S phase)” value [1] was “A similar result was obtained”. For the same compound, the “% G1” value [1, 6] was 40%, the “% G2/M” value [1, 6] was 14% and the “% S” value [1, 6] was 46%. For the same compound, the “accumulation of administered [3H]-E2 in tissue” value [4] was “prevents the accumulation of administered [^3H]-E2 in uterine, vaginal, and mammary tumor tissue”, the “inhibition of E2 stimulated cell growth” value [5] was “inhibit cell E2 stimulated cell growth” and the “% G1” value [2, 6] was 28%. The “% G2/M” value [2, 6] was 14% and the “% S” value [2, 6] was 58%.

From US7005429B2, “Method of treating estrogen receptor positive carcinoma with 17 α-dihydroequilin” (Wyeth, priority 1991, dated 2006)
